Data as given in US8569487B2, “Pyridazine compound and use thereof” (priority 2006, dated 2013).
Where two headings read alike, the source gives them in different places.

Legend:
[1] = test system: HCV genotype 1b (Con-1/lucneo) replicon; type: cell-based
Procedure: (§1) HCV genotype 1b (Con-1/lucneo) and 1a (H77/neo) replicon cells were incubated with serial dilutions of compound (1) 2′C-methyl adenosine (2′CMeA) or IFNα for 3 days in the absence or presence of 40 mg/mL human serum albumin (HSA).

[2] = test system: HCV genotype 1a (H77/neo) replicon; experiment: HCV genotype 1a (H77/neo) replicon, quantitative real-time PCR assay; type: cell-based; details: 3 days, absence of HSA
Procedure: as §1

[3] = test system: HCV genotype 2a subgenomic replicon; experiment: HCV genotype 2a subgenomic replicon in Huh-7 cells, NS3 protease activity readout; type: cell-based
Procedure: (§2) The antiviral activity of compound (1) against HCV genotype 2a was tested in cells chronically infected with the genotype 2a virus as well as in cells replicating a subgenomic 2a replicon. Huh-7 cells containing chronically replicating HCV genotype 2a (J6/JFH-Rluc) virus or subgenomic replicons were cultured with compound (1) or 2′CMeA for 3 days in the absence of human serum albumin. After cultivation, the amount of luciferase in 2a-virus containing cells and HCV NS3 protease activity in the 2a replicon-containing cells was determined using Promega's luciferase assay and a novel time-resolved fluorescence assay, respectively.

[4] = test system: HCV genotype 2a (J6/JFH-Rluc) virus; experiment: Huh-7 cells chronically infected with HCV genotype 2a (J6/JFH-Rluc) virus, luciferase assay; type: cell-based; details: 3 days, absence of HSA
Procedure: as §2

[5] = test system: Huh-7 lucneo cells; experiment: Cytotoxicity, CellTiter-Glo Luminescence Cell Viability assay, Huh-7 lucneo; type: cell-based
[6] = test system: SL3 cells; experiment: Cytotoxicity, CellTiter-Glo Luminescence Cell Viability assay, SL3; type: cell-based; details: HCV replicon-containing cell line
[7] = test system: MH4 cells; experiment: Cytotoxicity, CellTiter-Glo Luminescence Cell Viability assay, MH4; type: cell-based; details: HCV replicon-containing cell line
[8] = test system: HepG2 cells; experiment: Cytotoxicity, CellTiter-Glo Luminescence Cell Viability assay, HepG2; type: cell-based
[9] = test system: MT4 cells; experiment: Cytotoxicity, CellTiter-Glo Luminescence Cell Viability assay, MT4; type: cell-based
[10] = test system: HCV replicon cells; experiment: In vitro combination study with IFN-α in replicon cells (MacSynergy); type: cell-based; details: MacSynergy analysis
Procedure: Pegylated interteron-α (PEG-IFN-α), in combination with ribavirin, represents the current standard of care for HCV-infected patients. In vitro combination studies of compound (1) and IFN-α were performed in replicon cells. Data was analyzed using the MacSynergy template developed by Prichard and Shipman.

[11] = Phase-1 first-in-human trial, pharmacokinetics; type: in vivo
Procedure: (§3) A randomized, double-blind, placebo controlled trial was designed to evaluate the safety/tolerability, phamacokinetics and antiviral activity of single (in Part A) and multiple (in Part B) doses of Compound (1) (oleic acid solution, above) in subjects chronically infected with HCV genotype 1 (GT-1) without decompensated cirrhosis.
(§4) In ongoing Part B, four successive cohorts of 12 subjects are randomized (10:2) to receive multiple ascending doses of Compound 1 (40 mg BID, 120 mg BID, 240 mg QD, 240 mg BID) or placebo, over 8 days.

[12] = test system: HCV genotype 1; experiment: Phase-1 first-in-human trial, antiviral activity (HCV RNA decline); type: in vivo; details: following single-dose exposure
Procedure: as §3, §4

[13] = Phase-1 first-in-human trial, safety/tolerability; type: in vivo
Procedure: as §3, §4

[14] = Intrinsic solubility and pH solubility profile; type: physicochemical; details: pH 7.3
[15] = test system: HCV replicon; experiment: Anti-HCV replicon activity compared with prior art compound of formula (4); type: cell-based
Source text: The anti-HCV replicon activity of compound (1) was compared to that of a prior art (WO 05/063744) compound, the compound of formula (4)

[16] = non-replicon-containing cell line

## C[C@@]1(O)[C@H](O)[C@@H](CO)O[C@H]1n1cnc2c(N)ncnc21 [2′CMeA, 2′C-methyl adenosine, reference compound]
[1]; 3 days, absence of HSA, read-out: EC50 HCV 1b-lucneo (subgenomic replicon)
  EC50: 0.175 ± 0.07 µM
[1]; read-out: EC50 HCV 1b-lucneo 40 mg/mL HSA, 3 days, presence of 40 mg/mL human serum albumin
  EC50: 0.25 µM
[2]
  EC50: 0.17 µM
[3]; Huh-7 cells, 3 days, absence of HSA, read-out: EC50 HCV 2a (subgenomic replicon)
  EC50: 1.61 ± 1.1 µM
[4]; read-out: EC50 HCV-2a (reporter virus)
  EC50: 0.194 ± 0.026 µM
[5]; HCV replicon-containing cell line
  CC50: 7.2 ± 6 µM
[6]
  CC50: 3.9 µM
[7]
  CC50: 16 µM
[8]; [16]
  CC50: 24.3 ± 2.1 µM
[9]; [16]
  CC50: 3.5 ± 1.9 µM

## Fc1ccccc1-c1nc2ccn(Cc3ccc(-c4ccc(C(F)(F)F)cc4C(F)(F)F)nn3)cc-2n1 [Compound 1, 5-({6-[2,4-bis(trifluoromethyl)phenyl]pyridazin-3-yl}methyl)-2-(2-fluorophenyl)-5H-imidazo[4,5-c]pyridine]
[1]; CC50 in cell lines versus EC50 in HCV-1b and HCV-1a replicons
  selectivity index (CC50/EC50): 13,000-80,000
[3]; Hepatitis C virus, 72 h, Huh-7 cells, 3 days, absence of HSA, read-out: EC50 HCV 2a (subgenomic replicon)
  EC50: 21.9 ± 19 µM
[3]; Hepatitis C virus, Huh-7, 72 h, read-out: EC50 2a subgenomic replicon model
  EC50: 21.9 µM
[3]; compared with genotypes 1a and 1b
  anti-HCV replicon activity against genotype 2a: substantially less active
[5]; 50 μM, any of the cell lines Huh-7, SL3, MH4, HepG2, MT4
  toxic effects at the highest concentration tested: No toxic effects
[5]; human, Huh-7 lucneo cells (HCV replicon-containing)
  cytotoxicity in Huh-7 cells: > 50,000 nM
[6]
  CC50: > 50 µM
[7]
  CC50: > 50 µM
[8]; human
  cytotoxicity in HepG2 cells: > 50,000 nM
[9]; human
  cytotoxicity in MT4 cells: > 50,000 nM
[10]
  interaction between compound (1) and IFN-α: additive interaction
[11]; 240 mg fasted single dose
  mean concentration 24 hours after dosing relative to protein binding adjusted in vitro HCV GT-1b Replicon EC50: ~7 fold
[11]; HCV GT-1 infected subjects, single dose with food versus fasted
  increase of systemic exposure when administered with a high fat meal: approximately 2 fold
[12]
  time of maximal antiviral effect: 24 h
[13]; single doses 40-480 mg, HCV GT-1 infected subjects, no serious or treatment-limiting adverse events
  tolerability of single doses: well tolerated
[13]; single doses, Part A
  treatment emergent laboratory abnormalities: no Grade 3 or 4 treatment emergent laboratory abnormalities
[13]; single doses, Part A, all AEs mild except one moderate headache
  most common adverse event: headache
[14]
  pH solubility profile, geometric mean (3 lots): 0.7 micrograms/ml
[15]
  times more potent than the compound of formula (4): about 330 times

## IFN-α
[1]; 3 days, absence of HSA
  EC50 HCV 1b-lucneo (subgenomic replicon): 2 IU/mL
[4]
  EC50 HCV-2a (reporter virus): 1.2 IU/mL
